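How tested: cells in 96-well plates exposed to compound for 48 hours at five concentrations. Abbreviation: GI50, concentration required for 50% inhibition of growth. At the TGI there is no net growth.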
What was measured:
Assay in all cases: NCI anticancer screen, dose series, 48 h
786-0 renal = test system: 786-0 renal
A498 renal = test system: A498 renal
A549 NSCLC = test system: A549 NSCLC
ACHN renal = test system: ACHN renal
BT-549 breast = test system: BT-549 breast
CCRF-CEM leukemia = test system: CCRF-CEM leukemia
COLO 205 colon = test system: COLO 205 colon
DU-145 prostate = test system: DU-145 prostate
EKVX NSCLC = test system: EKVX NSCLC
HCC-2998 colon = test system: HCC-2998 colon
HCT-116 colon = test system: HCT-116 colon
HCT-15 colon = test system: HCT-15 colon
HL-60(TB) leukemia = test system: HL-60(TB) leukemia
HOP-62 NSCLC = test system: HOP-62 NSCLC
HOP-92 NSCLC = test system: HOP-92 NSCLC
HS 578T breast = test system: HS 578T breast
HT29 colon = test system: HT29 colon
IGROV1 ovarian = test system: IGROV1 ovarian
K-562 leukemia = test system: K-562 leukemia
KM12 colon = test system: KM12 colon
LOX IMVI melanoma = test system: LOX IMVI melanoma
M14 melanoma = test system: M14 melanoma
MALME-3M melanoma = test system: MALME-3M melanoma
MDA-MB-231 breast = test system: MDA-MB-231 breast
MDA-MB-435 = test system: MDA-MB-435
MOLT-4 leukemia = test system: MOLT-4 leukemia
NCI-H226 lung = test system: NCI-H226 lung
NCI-H23 lung = test system: NCI-H23 lung
NCI-H460 lung = test system: NCI-H460 lung
NCI-H522 lung = test system: NCI-H522 lung
NCI/ADR-RES ovarian = test system: NCI/ADR-RES ovarian
OVCAR-3 ovarian = test system: OVCAR-3 ovarian
OVCAR-4 ovarian = test system: OVCAR-4 ovarian
OVCAR-5 ovarian = test system: OVCAR-5 ovarian
OVCAR-8 ovarian = test system: OVCAR-8 ovarian
PC-3 prostate = test system: PC-3 prostate
RPMI-8226 leukemia = test system: RPMI-8226 leukemia
RXF 393 renal = test system: RXF 393 renal
SF-268 CNS = test system: SF-268 CNS
SF-295 CNS = test system: SF-295 CNS
SF-539 CNS = test system: SF-539 CNS
SK-MEL-2 melanoma = test system: SK-MEL-2 melanoma
SK-MEL-28 melanoma = test system: SK-MEL-28 melanoma
SK-MEL-5 melanoma = test system: SK-MEL-5 melanoma
SK-OV-3 ovarian = test system: SK-OV-3 ovarian
SN12C renal = test system: SN12C renal
SNB-19 CNS = test system: SNB-19 CNS
SNB-75 CNS = test system: SNB-75 CNS
SR leukemia = test system: SR leukemia
SW-620 colon = test system: SW-620 colon
T-47D breast = test system: T-47D breast
TK-10 renal = test system: TK-10 renal
U251 CNS = test system: U251 CNS
UACC-257 melanoma = test system: UACC-257 melanoma
UACC-62 melanoma = test system: UACC-62 melanoma
UO-31 renal = test system: UO-31 renal

C=C1C(=O)O[C@H]2[C@H]1CC/C(COC(=O)c1cc(OC)c(OC)c(OC)c1)=C\CC[C@@]1(C)O[C@@H]21
GI50 (786-0 renal): 1.27 µM | TGI (786-0 renal): 2.72 µM | GI50 (A498 renal): 2.57 µM | TGI (A498 renal): 8.56 µM | GI50 (A549 NSCLC): 3.05 µM | TGI (A549 NSCLC): 12.1 µM | GI50 (ACHN renal): 0.743 µM | TGI (ACHN renal): 2.02 µM | GI50 (BT-549 breast): 1.06 µM | TGI (BT-549 breast): 2.35 µM | GI50 (CCRF-CEM leukemia): 0.293 µM | TGI (CCRF-CEM leukemia): 2.28 µM | GI50 (COLO 205 colon): 1.18 µM | TGI (COLO 205 colon): 3.09 µM | GI50 (DU-145 prostate): 1.23 µM | TGI (DU-145 prostate): 2.47 µM | GI50 (EKVX NSCLC): 1.78 µM | TGI (EKVX NSCLC): 4.5 µM | GI50 (HCC-2998 colon): 1.92 µM | TGI (HCC-2998 colon): 3.88 µM | GI50 (HCT-116 colon): 0.409 µM | TGI (HCT-116 colon): 1.48 µM | GI50 (HCT-15 colon): 0.418 µM | TGI (HCT-15 colon): 1.82 µM | GI50 (HL-60(TB) leukemia): 0.711 µM | TGI (HL-60(TB) leukemia): 2.95 µM | GI50 (HOP-62 NSCLC): 2.4 µM | TGI (HOP-62 NSCLC): 11.5 µM | GI50 (HOP-92 NSCLC): 0.523 µM | TGI (HOP-92 NSCLC): 2.1 µM | GI50 (HS 578T breast): 3.68 µM | TGI (HS 578T breast): 32.7 µM | GI50 (HT29 colon): 0.441 µM | TGI (HT29 colon): 2.09 µM | GI50 (IGROV1 ovarian): 0.477 µM | TGI (IGROV1 ovarian): 2.05 µM | GI50 (K-562 leukemia): 0.388 µM | TGI (K-562 leukemia): 11.5 µM | GI50 (KM12 colon): 2.26 µM | TGI (KM12 colon): 5.82 µM | GI50 (LOX IMVI melanoma): 1.34 µM | TGI (LOX IMVI melanoma): 2.73 µM | GI50 (M14 melanoma): 1.27 µM | TGI (M14 melanoma): 3.05 µM | GI50 (MALME-3M melanoma): 1.77 µM | TGI (MALME-3M melanoma): 3.77 µM | GI50 (MDA-MB-231 breast): 1.54 µM | TGI (MDA-MB-231 breast): 4.16 µM | GI50 (MDA-MB-435): 1.64 µM | TGI (MDA-MB-435): 4.13 µM | GI50 (MOLT-4 leukemia): 1.64 µM | TGI (MOLT-4 leukemia): 5.55 µM | GI50 (NCI-H226 lung): 1.4 µM | TGI (NCI-H226 lung): 3.63 µM | GI50 (NCI-H23 lung): 1.7 µM | TGI (NCI-H23 lung): 3.95 µM | GI50 (NCI-H460 lung): 2.35 µM | TGI (NCI-H460 lung): 6.52 µM | GI50 (NCI-H522 lung): 0.589 µM | TGI (NCI-H522 lung): 2.25 µM | GI50 (NCI/ADR-RES ovarian): 2.87 µM | TGI (NCI/ADR-RES ovarian): 13.8 µM | GI50 (OVCAR-3 ovarian): 0.39 µM | TGI (OVCAR-3 ovarian): 1.44 µM | GI50 (OVCAR-4 ovarian): 2.09 µM | TGI (OVCAR-4 ovarian): 6.11 µM | GI50 (OVCAR-5 ovarian): 1.76 µM | TGI (OVCAR-5 ovarian): 5.08 µM | GI50 (OVCAR-8 ovarian): 1.85 µM | TGI (OVCAR-8 ovarian): 10.3 µM | GI50 (PC-3 prostate): 1.8 µM | TGI (PC-3 prostate): 4.49 µM | GI50 (RPMI-8226 leukemia): 0.422 µM | TGI (RPMI-8226 leukemia): 2.34 µM | GI50 (RXF 393 renal): 0.299 µM | TGI (RXF 393 renal): 1.27 µM | GI50 (SF-268 CNS): 1.46 µM | TGI (SF-268 CNS): 3.42 µM | GI50 (SF-295 CNS): 3.84 µM | TGI (SF-295 CNS): 15.8 µM | GI50 (SF-539 CNS): 0.895 µM | TGI (SF-539 CNS): 2.24 µM | GI50 (SK-MEL-2 melanoma): 1.6 µM | TGI (SK-MEL-2 melanoma): 3.63 µM | GI50 (SK-MEL-28 melanoma): 1.59 µM | TGI (SK-MEL-28 melanoma): 3.37 µM | GI50 (SK-MEL-5 melanoma): 1.68 µM | TGI (SK-MEL-5 melanoma): 3.05 µM | GI50 (SK-OV-3 ovarian): 5.22 µM | TGI (SK-OV-3 ovarian): 16.8 µM | GI50 (SN12C renal): 1.24 µM | TGI (SN12C renal): 3.12 µM | GI50 (SNB-19 CNS): 2.55 µM | TGI (SNB-19 CNS): 10.6 µM | GI50 (SNB-75 CNS): 7.92 µM | TGI (SNB-75 CNS): 21.6 µM | GI50 (SR leukemia): 0.342 µM | TGI (SR leukemia): 7.33 µM | GI50 (SW-620 colon): 0.355 µM | TGI (SW-620 colon): 1.57 µM | GI50 (T-47D breast): 0.931 µM | TGI (T-47D breast): 3.54 µM | GI50 (TK-10 renal): 1.22 µM | TGI (TK-10 renal): 2.7 µM | GI50 (U251 CNS): 1.6 µM | TGI (U251 CNS): 3.47 µM | GI50 (UACC-257 melanoma): 1.39 µM | TGI (UACC-257 melanoma): 3.12 µM | GI50 (UACC-62 melanoma): 1.18 µM | TGI (UACC-62 melanoma): 2.67 µM | GI50 (UO-31 renal): 0.402 µM | TGI (UO-31 renal): 1.7 µM
